# In patent publication US20250188043A1 (ReproNovo SA, priority 2023, published 2025):
# Columns and labels:
# [1] = Effect of oxygen (high oxygen content air or N2); assay type: physicochemical; conditions: high oxygen content air or inert atmosphere (N2)
# Source text: Oxidative degradation of leflutrozole is the primary pathway by which leflutrozole degrades outside of the synthesis process. Defluorination and oxidation that coincides with removal of the […] moiety yields the compound of Formula IV.
# [2] = Chemical stability stress test: bulk solid and suspensions in buffer; assay type: physicochemical; conditions: for Leflutrozole Peak Area, After: 1 week; for degradation: all suspensions tested
# Procedure: The stress test conditions were bulk crystalline solid at room temperature (RT, about 25° C.) and 80° C. for one week or storage in buffer solutions of different pH (1, 4, and 7.4) at RT or at 80° C. for one week. Additional experiments were performed at 50° C. if degradation by more than 5% was observed during the analogous 80° C. experiment.
# [3] = target: T1, CYP2E1 (Homo sapiens, UniProt P05181); experiment: CYP inhibition, pooled human liver microsomes, probe substrates; assay type: in vitro ADME; conditions: up to 100 μM
# T1 construct: assessed by pooled human liver microsomes using enzyme selective probe substrates; from tissue; host or cells: pooled human liver microsomes
# T1 sequence (P05181 whole entry): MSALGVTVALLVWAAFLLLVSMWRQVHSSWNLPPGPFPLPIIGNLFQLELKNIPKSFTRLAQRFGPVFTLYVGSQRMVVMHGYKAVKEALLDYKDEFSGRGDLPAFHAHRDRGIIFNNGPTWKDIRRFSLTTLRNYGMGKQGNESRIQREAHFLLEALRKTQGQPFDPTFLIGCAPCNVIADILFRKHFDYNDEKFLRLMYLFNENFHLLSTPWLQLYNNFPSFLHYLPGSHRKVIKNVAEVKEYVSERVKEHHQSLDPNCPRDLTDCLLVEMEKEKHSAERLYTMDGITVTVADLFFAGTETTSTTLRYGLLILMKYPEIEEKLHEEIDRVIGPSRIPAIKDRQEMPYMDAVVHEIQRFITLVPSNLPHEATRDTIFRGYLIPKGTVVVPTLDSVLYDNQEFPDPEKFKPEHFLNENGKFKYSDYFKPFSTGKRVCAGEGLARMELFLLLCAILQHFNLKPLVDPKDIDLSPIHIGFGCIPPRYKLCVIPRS
# [4] = target: T2, CYP2C8 (Homo sapiens, UniProt P10632); experiment: as above; assay type: in vitro ADME; conditions: up to 100 μM
# T2 construct: assessed by pooled human liver microsomes using enzyme selective probe substrates; from tissue; host or cells: pooled human liver microsomes
# T2 sequence (P10632 1-490): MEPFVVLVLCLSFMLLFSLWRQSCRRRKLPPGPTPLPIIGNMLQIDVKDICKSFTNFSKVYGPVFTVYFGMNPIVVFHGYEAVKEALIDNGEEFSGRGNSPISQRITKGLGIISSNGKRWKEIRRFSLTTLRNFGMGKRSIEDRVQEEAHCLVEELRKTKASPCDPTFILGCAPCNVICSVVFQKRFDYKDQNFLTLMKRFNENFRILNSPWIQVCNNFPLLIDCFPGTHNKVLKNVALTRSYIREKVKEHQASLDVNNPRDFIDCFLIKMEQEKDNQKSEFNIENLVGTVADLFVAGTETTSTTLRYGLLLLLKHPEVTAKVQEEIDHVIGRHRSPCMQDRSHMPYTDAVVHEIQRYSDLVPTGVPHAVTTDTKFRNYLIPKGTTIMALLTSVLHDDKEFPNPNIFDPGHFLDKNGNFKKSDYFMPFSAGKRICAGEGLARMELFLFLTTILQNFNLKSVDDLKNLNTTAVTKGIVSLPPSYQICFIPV
# [5] = Pharmacokinetics in naïve female mice; conditions: mouse, in vivo, NMP-PEG300 10/90
# [6] = target: T3, breast cancer resistance protein (Homo sapiens, UniProt Q9UNQ0); experiment: Breast cancer resistance protein inhibition; assay type: in vitro ADME; conditions: at concentrations above 200 μM
# T3 sequence (Q9UNQ0 1-655): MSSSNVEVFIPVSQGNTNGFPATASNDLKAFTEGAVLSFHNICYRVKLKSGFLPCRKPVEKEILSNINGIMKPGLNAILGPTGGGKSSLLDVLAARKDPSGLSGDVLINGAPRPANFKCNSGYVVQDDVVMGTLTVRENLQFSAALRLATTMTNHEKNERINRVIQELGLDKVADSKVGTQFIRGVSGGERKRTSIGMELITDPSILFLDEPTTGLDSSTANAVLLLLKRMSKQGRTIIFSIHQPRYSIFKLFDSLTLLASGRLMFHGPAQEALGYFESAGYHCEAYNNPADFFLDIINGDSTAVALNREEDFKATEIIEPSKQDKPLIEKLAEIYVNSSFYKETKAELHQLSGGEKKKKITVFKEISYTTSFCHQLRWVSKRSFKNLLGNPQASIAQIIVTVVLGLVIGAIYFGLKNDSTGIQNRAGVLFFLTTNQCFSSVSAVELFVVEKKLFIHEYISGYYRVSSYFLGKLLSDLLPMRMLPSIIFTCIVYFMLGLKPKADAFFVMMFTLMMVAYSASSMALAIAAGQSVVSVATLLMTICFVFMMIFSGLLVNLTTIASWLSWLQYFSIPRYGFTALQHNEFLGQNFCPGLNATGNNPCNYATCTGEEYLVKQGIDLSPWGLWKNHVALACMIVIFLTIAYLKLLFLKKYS
# [7] = system: obese and overweight men with hypogonadism and low total motile sperm count; experiment: Randomized, double-blind phase IIb trial of oral leflutrozole; assay type: in vivo, human; conditions: for Semen Volume, change from baseline, LS mean difference (95% CI) vs. placebo / Sperm Morphology, change from baseline, LS mean difference (95% CI) vs. placebo / Sperm Motility, change from baseline, LS mean difference (95% CI) vs. placebo / Spermatozoa, change from baseline, LS mean difference (95% CI) vs. placebo / Total Motile Sperm Count, change from baseline, LS mean difference (95% CI) vs. placebo: Week 20; for Estradiol, Initial: baseline; for population with testosterone normalization: day 8 of treatment (2nd visit); for Estradiol, Change: to week 24; for FSH increase / estradiol decrease / mean LH increase: week 24
# Procedure: The primary endpoint of the study is a change in testosterone levels after 24 weeks of treatment. […] Normalization of testosterone, for the purposes of this trial, was considered to be between 300 and 1000 ng/dL (10.4 and 35 nmol/L, respectively). Levels above 1000 ng/dL are furthermore considered abnormal.
# [8] = Metabolic stability in human liver microsomes; assay type: in vitro ADME
structure (smiles),measurement,setting,value
"N#Cc1ccc(C(F)(c2ccc(C#N)cc2)n2cncn2)cc1 [Form A leflutrozole, 4-[(4-cyanophenyl)-fluoro-(1,2,4-triazol-1-yl)methyl]benzonitrile]",degradation on exposure to air (in words),[1],does not degrade readily when exposed to air
same,"Leflutrozole Peak Area, After","[2]; Bulk Solid, RT",99.6% peak area
same,"Leflutrozole Peak Area, After","[2]; Bulk solid, 80° C., listed as Form A of leflutrozole",99.7 % peak area
same,"Leflutrozole Peak Area, After","[2]; Bulk solid, 80° C., listed as crystalline Form A leflutrozole",99.7% peak area
same,"Leflutrozole Peak Area, After","[2]; Suspension in buffer, pH 1, 50° C.",79.8% peak area
same,"Leflutrozole Peak Area, After","[2]; Suspension in buffer, pH 1, 80° C.",18.5% peak area
same,"Leflutrozole Peak Area, After","[2]; Suspension in buffer, pH 4, 50° C.",94.3% peak area
same,"Leflutrozole Peak Area, After","[2]; Suspension in buffer, pH 4, 80° C.",0.6% peak area
same,"Leflutrozole Peak Area, After","[2]; Suspension in buffer, pH 7.4, 50° C.",95.5% peak area
same,"Leflutrozole Peak Area, After","[2]; Suspension in buffer, pH 7.4, 80° C.",1.1% peak area
same,degradation,[2]; 1 week at 50° C.,> 4%
same,degradation,"[2]; 80° C. for 1 week, irrespective of buffer pH",> 80%
same,"Leflutrozole Peak Area, Before",[2]; before stress test,99.7% peak area
same,major decomposition product,"[2]; sample stored at pH 7.4 and 80° C., LC-MS",compound of Formula (IV)
"N#Cc1ccc(C(F)(c2ccc(C#N)cc2)n2cncn2)cc1 [leflutrozole, 4-[(4-cyanophenyl)-fluoro-(1,2,4-triazol-1-yl)methyl]benzonitrile]",IC50,[3],> 50 µM
same,IC50,[4],> 50 µM
same,AUC(0-inf),"[5]; iv, 1 mg/kg i.v.",34 µM·h
same,AUC(0-t),"[5]; iv, 1 mg/kg i.v.",21 µM·h
same,clearance,"[5]; iv, 1 mg/kg i.v.",1.5 mL/min
same,half-life,"[5]; iv, 1 mg/kg i.v.",13 h
same,AUC(0-inf),"[5]; po, 2.5 mg/kg p.o.",70.2 µM·h
same,AUC(0-t),"[5]; po, 2.5 mg/kg p.o.",61.7 µM·h
same,Cmax,"[5]; po, 2.5 mg/kg p.o.",2930 nM
same,half-life,"[5]; po, 2.5 mg/kg p.o.",13 h
same,inhibition of breast cancer resistance protein,[6],not determined to be an inhibitor
same,"Estradiol, Week 24 Measurement",[7]; 0.1 mg,12.94 pg/mL
same,"subjects with normalized testosterone (300-1000 ng/dL), number","[7]; 0.1 mg weekly, after 24 weeks",59 subjects
same,"Semen Volume, change from baseline, LS mean difference (95% CI) vs. placebo",[7]; 0.1 mg,0.7 mL
same,"Sperm Morphology, change from baseline, LS mean difference (95% CI) vs. placebo",[7]; 0.1 mg,−1.9 %
same,"Sperm Motility, change from baseline, LS mean difference (95% CI) vs. placebo",[7]; 0.1 mg,2.7 %
same,"Spermatozoa, change from baseline, LS mean difference (95% CI) vs. placebo",[7]; 0.1 mg,"130.4 (−65.3, 10^6/ejaculate"
same,"Total Motile Sperm Count, change from baseline, LS mean difference (95% CI) vs. placebo",[7]; 0.1 mg,"86.3 (−24.5, 10^6/ejaculate"
same,"Estradiol, Initial",[7]; 0.1 mg,24.69 pg/mL
same,population with testosterone normalization,[7]; 0.1 mg,80.6%
same,"Estradiol, Change",[7]; 0.1 mg,-11.75 pg/mL
same,FSH increase,[7]; 0.1 mg,4.836 mlU/mL
same,estradiol decrease,[7]; 0.1 mg,11.8 pg/mL
same,mean LH increase,[7]; 0.1 mg,2.108 mlU/mL
same,"Estradiol, Week 24 Measurement",[7]; 0.3 mg,11.84 pg/mL
same,"subjects with normalized testosterone (300-1000 ng/dL), number","[7]; 0.3 mg weekly, after 24 weeks",62 subjects
same,"Semen Volume, change from baseline, LS mean difference (95% CI) vs. placebo",[7]; 0.3 mg,0.8 mL
same,"Sperm Morphology, change from baseline, LS mean difference (95% CI) vs. placebo",[7]; 0.3 mg,−2.6 %
same,"Sperm Motility, change from baseline, LS mean difference (95% CI) vs. placebo",[7]; 0.3 mg,−0.1 %
same,"Spermatozoa, change from baseline, LS mean difference (95% CI) vs. placebo",[7]; 0.3 mg,"90.2 (−126.5, 10^6/ejaculate"
same,"Total Motile Sperm Count, change from baseline, LS mean difference (95% CI) vs. placebo",[7]; 0.3 mg,"54.2 (−77.3, 10^6/ejaculate"
same,"Estradiol, Initial",[7]; 0.3 mg,24.80 pg/mL
same,population with testosterone normalization,[7]; 0.3 mg,89.1%
same,"Estradiol, Change",[7]; 0.3 mg,-12.96 pg/mL
same,FSH increase,[7]; 0.3 mg,6.183 mlU/mL
same,estradiol decrease,[7]; 0.3 mg,13 pg/mL
same,mean LH increase,[7]; 0.3 mg,3.560 mlU/mL
same,"Estradiol, Week 24 Measurement",[7]; 1.0 mg,8.63 pg/mL
same,"subjects with normalized testosterone (300-1000 ng/dL), number","[7]; 1.0 mg weekly, after 24 weeks",63 subjects
same,"subjects with normalized testosterone (300-1000 ng/dL), percent","[7]; 1.0 mg weekly, after 24 weeks",94.0%
same,"Semen Volume, change from baseline, LS mean difference (95% CI) vs. placebo",[7]; 1.0 mg,1.4 mL
same,"Sperm Morphology, change from baseline, LS mean difference (95% CI) vs. placebo",[7]; 1.0 mg,−4.1 %
same,"Sperm Motility, change from baseline, LS mean difference (95% CI) vs. placebo",[7]; 1.0 mg,−1.2 %
same,"Spermatozoa, change from baseline, LS mean difference (95% CI) vs. placebo",[7]; 1.0 mg,"270.1 (65.0, 10^6/ejaculate"
same,"Total Motile Sperm Count, change from baseline, LS mean difference (95% CI) vs. placebo",[7]; 1.0 mg,"127.7 (12.6, 10^6/ejaculate"
same,"Estradiol, Initial",[7]; 1.0 mg,23.47 pg/mL
same,population with testosterone normalization,[7]; 1.0 mg,89.1%
same,"Estradiol, Change",[7]; 1.0 mg,-14.84 pg/mL
same,FSH increase,[7]; 1.0 mg,8.282 mlU/mL
same,estradiol decrease,[7]; 1.0 mg,14.8 pg/mL
same,mean LH increase,[7]; 1.0 mg,5.209 mlU/mL
same,primary endpoint (≥75% of subjects with normalization of testosterone by week 24),[7]; all leflutrozole treatment groups,met in all leflutrozole treatment groups
same,"changes from baseline vs placebo in triglycerides, HbA1c, glucose and C-reactive protein","[7]; during the study, p>0.05",No statistically significant changes
same,insulin and HOMA-IR compared with placebo,"[7]; leflutrozole treatment groups, none met statistical significance",Consistent decreases
same,"semen volume improvement, LS mean difference (95% CI)",[7]; stated as across all active treatment arms,"1.4 (0.4, 2.3) mL"
same,sperm count compared to placebo (in words),"[7]; weeks 12 and 20, all three treatment arms",increases were observed across all three treatment arms compared to placebo
same,half-life,[8],3.35 h
same,CLint scaled,[8]; read-out: intrinsic clearance (CLint),6.9 mL/min/kg
